Assay results from US20120178177A1, “Biological Components Within the Cerebrospinal Fluid” (priority 2009, published 2012).

What was measured:
[1] = system: SH-SY5Y cells; assay: Quantification of Annexin V-positive MPs released by differentiated SH-SY5Y cells (flow cytometry); assay type: cell-based, human; conditions: 24 hours treatment, Staurosporine 100 and 500 nM vs vehicle DMSO 0.1%, FIG. 5A
Protocol: (§1) The SH-SY5Y cells were maintained and differentiated in cell culture conditions as described under the Materials & Methods section of Example 2. Cells were then treated for 24 hours with Staurosporine at two different concentrations or with vehicle only. At the end of the treatment, culture medium was collected and MPs were isolated and subsequently quantified by flow cytometry. Those results are representative of several independent experiments. The resulting MPs populations have been isolated and characterized by flow cytometry (A) or by two-dimensional gel electrophoresis (B) as described in the Materials and Methods section. The three gels have been compared in an area comprised between approximately 10-60 kDa and pl 3.0 to 7.0. The boxes (named C, 1, and 2) define specific areas of interest in the captured images.
The human neuronal cell line SH-SY5Y (ATCC CRL-2266) was cultured in MEM/Ham's F12 medium (1:1) supplemented with 10% foetal bovine serum. Cells were seeded at 55,000 cells/cm^2. Cell differentiation was induced by adding 9-cis retinoic acid (5 μM) for 5 days directly to complete culture medium. After 5 days, medium was replaced with complete medium supplemented with BDNF (50 ng/ml) for additional 5 days. […]
MPs quantifications were performed by flow cytometry using fluorescein-labelled, His-tagged Annexin V, as indicated in Example 1 for CS-MPs and Plasma MPs.

[2] = system: SH-SY5Y cells; assay: Two-dimensional gel electrophoresis of MPs from SH-SY5Y cells; assay type: cell-based, human; conditions: MPs from SH-SY5Y cells treated with Staurosporine 100 and 500 nM vs vehicle; FIG. 5B
Protocol: as §1
The human neuronal cell line SH-SY5Y (ATCC CRL-2266) was cultured in MEM/Ham's F12 medium (1:1) supplemented with 10% foetal bovine serum. Cells were seeded at 55,000 cells/cm^2. Cell differentiation was induced by adding 9-cis retinoic acid (5 μM) for 5 days directly to complete culture medium. […]
MPs populations were obtained from Staurosporine-induced SH-SY5Y cells as indicated above. […] Non-protein impurities were removed using the ReadyPrep 2D Cleanup kit prior to isoelectrofocalisation (IEF) steps. […]

[3] = system: IL1beta; assay: Gene expression of inflammatory markers in rat brain after intracerebroventricular injection (RT-QPCR); assay type: in vivo; conditions: LPS 50 μg/animal intracerebroventricular; rat brain (cortex, striatum, hippocampus); relative to 36B4 mRNA
Protocol: (§2) This experiment was elaborated on the basis of protocols described in previous publications (Sanna P et al., 1995). Briefly, male SD rats (225-250 g, CERJ, France) were anesthetized with pentobarbital (55 mg/kg) and positioned in a stereotaxic frame. Then, they received an intracerebroventricular injection of LPS (50 μg/animal in 3.3 μl of saline buffer) or saline (NaCl 0.9%) using a Kopf apparatus. The coordinates for the sterotaxic injections were −2.3 mm dorsal/ventral, −1.4 mm lateral, and −0.6 mm anterior/posterior from the bregma.
(§3) Total RNA was extracted using Qiagen RNA extraction kits following manufacturer's instructions. Total RNA was treated with DNase I (Ambion Inc., Austin, Tex., USA) at 37° C. for 30 minutes, followed by inactivation at 75° C. for 5 minutes. Real time quantitative PCR (RT-QPCR) assays were performed using an Applied Biosystems 7900 sequence detector. Total RNA (1 μg) was reverse transcribed with random hexamers using Taqman reverse-transcription reagents kit (Applied Biosystems) following the manufacturer's protocol. Gene expression levels were determined by Sybr green assays. 36B4 transcript was used as an internal control to normalize the variations for RNA amounts. Gene expression levels are expressed relative to 36B4 mRNA levels.
(§4) The specific primers used for the quantification were: […]

[4] = system: TNFalpha; assay: as above; assay type: in vivo; conditions: LPS 50 μg/animal intracerebroventricular; rat brain (cortex, striatum, hippocampus); relative to 36B4 mRNA
Protocol: as §2, §3, §4

[5] = system: male SD rats; assay: Quantification of rat CS-MPs in CSF by Annexin V flow cytometry after intracerebroventricular injection; assay type: in vivo; conditions: LPS 50 μg/animal intracerebroventricular vs saline; CSF from cisterna magna after 24 hours; FIG. 3A
Protocol: (§5) Two groups of male SD rats (n=8 for each group) were intracerebroventricularly injected with either vehicle (Saline; NaCl 0.9%) or a test substance (Lipopolysaccharides; LPS). After 24 hours, CSF was collected directly in the cisterna magna and blood was obtained by retro-orbital puncture from each animal. CS-MPs and plasma MPs populations were prepared as described in the Materials & Methods of Example 1 and the concentrations of CS-MPs (A) and Plasma MPs (B) populations in the samples were quantified for both groups of animals by flow cytometry. Data are expressed as Mean±SEM (*: p<0.05). […] In a control experiment (C), the CSF and blood samples were collected respectively in the cisterna magna and by retro-orbital, puncture from healthy male SD rats (n=8). CS-MPs and Plasma MPs populations were prepared as described in the Materials & Methods section of Example 1 and then quantified by flow cytometry. Data are expressed as Mean±SEM (*: p<0.05). […]
(§6) The quantifications were performed using a FC500 flow cytometer (Beckman-Coulter, France) by incubating for 30 minutes in the dark each samples (30 μl) with 60 ng of His-tagged, Fluorescein-labelled Annexin V in incubation buffer (2.5 mM CaCl2, 140 mM NaCl, 10 mM HEPES pH 7.4). […] Each sample was then analyzed by flow cytometry. […]

[6] = system: male SD rats; assay: Quantification of rat Plasma MPs by Annexin V flow cytometry after intracerebroventricular injection; assay type: in vivo; conditions: LPS 50 μg/animal intracerebroventricular vs saline; plasma after 24 hours; FIG. 3B
Protocol: as §5, §6

| Compound | change in Annexin V-positive MPs in cell culture medium [1] | protein content of MPs on two-dimensional gel [2] | induction of IL1beta gene expression [3] | induction of TNFalpha gene expression [4] | induction of CS-MP levels [5] | change of Plasma MPs [6] |
| --- | --- | --- | --- | --- | --- | --- |
| CN[C@@H]1C[C@H]2O[C@@](C)([C@@H]1OC)n1c3ccccc3c3c4c(c5c6ccccc6n2c5c31)C(=O)NC4 [Staurosporine] | significant and dose-dependent increase | evident enrichment in proteins | – | – | – | – |
| Lipopolysaccharides [LPS] | – | – | 40 fold | 6 fold | 3 fold | without a simultaneous and significant increase |
